One compound from paper PMC6409966 (2019) can be followed below.

Structures are written as SMILES.

The experiment relates to thiolated MG binding aptamer (RNA, aptamer) GGAUCCCGACUGGCGAGAGCCAGGUAACGAAUGGAUCC
Briefly: cyclic voltammetry / DPV of captured MG on aptamer electrode; EIS. The following applies: Na+ / K+ (Na2HPO4/KH2PO4 buffer); phosphate buffer pH 7.4, room temperature, 2 h; 1.0 and 10 μM MG; immobilised aptamer.

Regarding `CN(C)c1ccc(C(=C2C=CC(=[N+](C)C)C=C2)c2ccccc2)cc1`, the binding entry was “yes”.
